Test results from publication PMC8199755, “In Vitro and In Vivo Trypanocidal Efficacy of Synthesized Nitrofurantoin Analogs” (Molecules, 2021).
Read-outs that look alike come from different tables or passages of the source.

Columns and labels:
[1] = tested on: T. b. brucei GUTat3.1; assay: In vitro trypanocidal activity (CellTiter-Glo, 3 days); type: cell-based; conditions: Trypanosoma brucei, 72 h, bloodstream forms, 37 °C, mean ± SD of triplicate, read-out: Trypanocidal Activity IC50 ± SD, Tbb GUTat3.1
Experimental: (§1) The bloodstream forms of T. b. brucei GUTat3.1, T. b. rhodesiense IL1501, T. b. rhodesiense Chirundu, T. b. gambiense IL1922, and T. evansi Tansui strains were propagated in culture at 37 °C, whereas the T. congolense IL3000 strain was propagated at 33 °C in Hirumi’s modified Iscove’s medium-9, supplemented with 20% heat-inactivated fetal bovine serum. The bloodstream form cultures were maintained by replacing the entire culture supernatant with fresh medium, every other day.
(§2) The trypanocidal activity and cytotoxicity of nitrofurantoin analogs were evaluated according to previous reports, with some modifications. In brief, bloodstream forms adjusted at 2.5 × 10^3 cells/mL (T. b. brucei GUTat3.1, T. b. gambiense IL1922, and T. b. rhodesiense IL1501), 1 × 10^4 cells/mL (T. evansi Tansui and T. b. rhodesiense Chirundu), and 1 × 10^5 cells/mL (T. congolense IL3000), were cultivated in Nunc® MicroWell 96-well optical bottom plates (Thermo Fisher Scientific, Waltham, MA, USA) and exposed to various analogs at seven different concentrations for 3 days, in an incubator at 37 °C (33 °C for T. congolense IL3000). […] Twenty-five microliters of the Cell-TiterGlo® (Promega, Madison, WI, USA) reagent was added into each well, and bioluminescence was measured using a GloMax®-Multi+Detection System plate reader (Promega).
(§3) The half maximum inhibitory concentration (IC50) of each analog in trypanosomes and the Madin–Darby bovine kidney cells was calculated using the GraphPad Prism version 8 software (GraphPad, Inc., San Diego, CA, USA).

[2] = tested on: T. b. gambiense IL1922; assay: as above; type: cell-based; conditions: Trypanosoma brucei, 72 h, bloodstream forms, 37 °C, mean ± SD of triplicate, read-out: Trypanocidal Activity IC50 ± SD, Tbg IL1922
Experimental: as §1, §2, §3

[3] = tested on: T. b. rhodesiense Chirundu; assay: as above; type: cell-based; conditions: Trypanosoma brucei, 72 h, bloodstream forms, 37 °C, mean ± SD of triplicate, read-out: Trypanocidal Activity IC50 ± SD, Tbr Chirundu
Experimental: as §1, §2, §3

[4] = tested on: T. b. rhodesiense IL1501; assay: as above; type: cell-based; conditions: Trypanosoma brucei, 72 h, bloodstream forms, 37 °C, mean ± SD of triplicate, read-out: Trypanocidal Activity IC50 ± SD, Tbr IL1501
Experimental: as §1, §2, §3

[5] = tested on: T. congolense IL3000; assay: as above; type: cell-based; conditions: bloodstream forms, 33 °C, mean ± SD of triplicate, read-out: Trypanocidal Activity IC50 ± SD, Tc IL3000
Experimental: as §1, §2, §3

[6] = tested on: T. evansi Tansui; assay: as above; type: cell-based; conditions: 72 h, bloodstream forms, 37 °C, mean ± SD of triplicate, read-out: Trypanocidal Activity IC50 ± SD, Tev Tansui
Experimental: as §1, §2, §3

[7] = Cytotoxicity (Cell Counting Kit-8, 3 days); type: cell-based, bovine; conditions: bovine, 37 °C, mean ± SD of triplicate
Experimental: Additionally, Madin–Darby bovine kidney cells were cultivated (density, 1 × 10^4 cells/mL) in a 96-well cell culture plate (Thermo Fisher Scientific) with the analogs, at seven different concentrations for 3 days at 37 °C. Next, 10 µl of the Cell Counting Kit-8 solution (Dojindo, Kumamoto, Japan) was added into each well […] 4 h of incubation. Absorbance was measured at 450 nm using a GloMax®-Multi+Detection System plate reader.
as §3

[8] = Madin–Darby bovine kidney (MDBK) cells

Row | SMILES | IC50 [1] [nM] | IC50 [2] [nM] | IC50 [3] [nM] | IC50 [4] [nM] | IC50 ([5]; Trypanosoma congolense, 72 h) [nM] | IC50 [6] [nM] | IC50 at 3 days ([7]; MDBK cells) [nM] | IC50 at 3 days [7, 8] [nM] | IC50 [5] [nM]
1 | O=C1CN(/N=C/c2ccc([N+](=O)[O-])o2)C(=O)N1Cc1ccc([N+](=O)[O-])cc1 [Analog 17, (E)-3-(p-Nitrobenzyl)-1-([(5-nitrofuran-2-yl)methylene]amino)imidazolidine-2,4-dione] | 1070 ± 740 | 1050 ± 700 | 40 ± 94 | 500 ± 12 | 40 ± 17 | 610 ± 50 | 20100 ± 1020 | – | –
2 | N=C(N)c1ccc(OCCCCCOc2ccc(C(=N)N)cc2)cc1 [Pentamidine, reference compound] | 41 ± 2.3 | 14 ± 3.1 | 50 ± 12 | 29 ± 6.2 | 330 ± 54 | 0.97 ± 0.19 | – | – | –
3 | CCCCCCCCCCN1C(=O)CN(/N=C/c2ccc([N+](=O)[O-])o2)C1=O [Analog 10, (E)-3-Decyl-1-([(5-nitrofuran-2-yl)methylene]amino)imidazolidine-2,4-dione] | 650 ± 560 | 620 ± 700 | 17 ± 4.4 | 610 ± 60 | 11 ± 4.4 | 280 ± 25 | – | 110000 ± 14400 | –
4 | COc1ccc(CN2C(=O)CN(/N=C/c3ccc([N+](=O)[O-])o3)C2=O)cc1 [Analog 18, (E)-3-(p-Methoxybenzyl)-1-([(5-nitrofuran-2-yl)methylene]amino)imidazolidine-2,4-dione] | 9910 ± 92 | 9780 ± 310 | 330 ± 220 | 10100 ± 620 | 140 ± 30 | 2400 ± 190 | – | 80100 ± 36900 | –
5 | O=C1CN(/N=C/c2ccc([N+](=O)[O-])o2)C(=O)N1Cc1ccc(C(F)(F)F)cc1 [Analog 16, (E)-1-([(5-Nitrofuran-2-yl)methylene]amino)-3-(p-(trifluoromethyl)benzyl) imidazolidine-2,4-dione] | 520 ± 81 | 610 ± 260 | 20 ± 12 | 960 ± 8.7 | 20 | 440 ± 46 | – | 56600 ± 40800 | –
6 | CCCCCCN1C(=O)CN(/N=C/c2ccc([N+](=O)[O-])o2)C1=O [Analog 6, (E)-3-Hexyl-1-([(5-nitrofuran-2-yl)methylene]amino)imidazolidine-2,4-dione] | 5760 ± 4010 | 2590 ± 280 | 170 ± 110 | 2610 ± 120 | 80 ± 47 | 3760 ± 470 | – | 25200 ± 3520 | –
7 | CCN1C(=O)CN(/N=C/c2ccc([N+](=O)[O-])o2)C1=O [Analog 2, (E)-3-Ethyl-1-([(5-nitrofuran-2-yl)methylene]amino)imidazolidine-2,4-dione] | 10800 ± 4840 | 11300 ± 4800 | – | 11400 ± 5240 | – | 5390 ± 530 | – | 44800 ± 1690 | –
8 | CCCCCCCN1C(=O)CN(/N=C/c2ccc([N+](=O)[O-])o2)C1=O [Analog 7, (E)-3-Heptyl-1-([(5-nitrofuran-2-yl)methylene]amino)imidazolidine-2,4-dione] | 2060 ± 750 | 1990 ± 750 | 56 ± 26 | 1450 ± 860 | 40 ± 11 | 1020 ± 100 | – | 92300 ± 6520 | –
9 | CCCN1C(=O)CN(/N=C/c2ccc([N+](=O)[O-])o2)C1=O [Analog 3, (E)-1-([(5-Nitrofuran-2-yl)methylene]amino)-3-propylimidazolidine-2,4-dione] | 14100 ± 340 | 14700 ± 1320 | 810 ± 240 | 14000 ± 1420 | 330 ± 180 | 6530 ± 610 | – | 39300 ± 1090 | –
10 | O=C1CN(/N=C/c2ccc([N+](=O)[O-])o2)C(=O)N1CCCc1ccccc1 [Analog 13, (E)-1-([(5-Nitrofuran-2-yl)methylene]amino)-3-(3-phenylpropyl)imidazolidine-2,4-dione] | 7290 ± 3160 | 4830 ± 3220 | 140 ± 67 | 5900 ± 3750 | 140 ± 30 | 3110 ± 370 | – | > 281000 | –
11 | O=C1CN(/N=C/c2ccc([N+](=O)[O-])o2)C(=O)N1Cc1ccccc1 [Analog 14, (E)-3-Benzyl-1-([(5-nitrofuran-2-yl)methylene]amino)imidazolidine-2,4-dione] | 2880 ± 260 | 2340 ± 640 | 270 ± 120 | 2830 ± 610 | 180 ± 17 | 1260 ± 100 | – | > 305000 | –
12 | CCCCN1C(=O)CN(/N=C/c2ccc([N+](=O)[O-])o2)C1=O [Analog 4, (E)-3-Butyl-1-([(5-nitrofuran-2-yl)methylene]amino)imidazolidine-2,4-dione] | 33300 ± 24300 | 17200 ± 2230 | 1380 ± 340 | 32700 ± 820 | 310 ± 200 | 7890 ± 530 | – | 35800 ± 3490 | –
13 | CN1C(=O)CN(/N=C/c2ccc([N+](=O)[O-])o2)C1=O [Analog 1, (E)-3-Methyl-1-([(5-nitrofuran-2-yl)methylene]amino)imidazolidine-2,4-dione] | 3610 ± 400 | 3600 ± 260 | – | 7020 ± 94 | 190 to 730 | 1610 ± 98 | – | 65200 ± 12800 | 190 ± 76
14 | CCCCCN1C(=O)CN(/N=C/c2ccc([N+](=O)[O-])o2)C1=O [Analog 5, (E)-1-([(5-Nitrofuran-2-yl)methylene]amino)-3-pentylimidazolidine-2,4-dione] | 4240 ± 1990 | 3420 ± 1470 | – | 5690 ± 1660 | 350 ± 150 | 5440 ± 170 | – | 39100 ± 5860 | –
15 | NCCCC(N)(C(=O)O)C(F)F (stereo not drawn) [Eflornithine, reference compound] | 38600 ± 9880 | 36700 ± 12900 | 35600 ± 10200 | 46000 ± 17100 | 16100 ± 2930 | 57200 ± 17600 | – | – | –
16 | O=C1CN(/N=C/c2ccc([N+](=O)[O-])o2)C(=O)N1Cc1ccc(Br)cc1 [Analog 19, (E)-3-(p-Bromobenzyl)-1-([(5-nitrofuran-2-yl)methylene]amino)imidazolidine-2,4-dione] | 2130 ± 230 | 2040 ± 91 | 41 ± 25 | 2470 ± 690 | 49 ± 33 | 1150 ± 110 | – | 28700 ± 5690 | –
17 | CC1CS(=O)(=O)CCN1/N=C/c1ccc([N+](=O)[O-])o1 (stereo not drawn) [Nifurtimox, reference compound] | 4660 | 4580 ± 2380 | 1460 ± 350 | 4350 ± 1590 | 1060 ± 220 | 2620 ± 1400 | – | – | –
18 | Cc1ccc(CN2C(=O)CN(/N=C/c3ccc([N+](=O)[O-])o3)C2=O)cc1 [Analog 15, (E)-3-(p-Methylbenzyl)-1-([(5-nitrofuran-2-yl)methylene]amino)imidazolidine-2,4-dione] | 8240 ± 3110 | 2890 ± 510 | 150 ± 68 | 6100 ± 47 | 130 ± 44 | 4230 ± 400 | – | 34300 ± 11500 | –
19 | Cc1ccc(C(=O)Nc2ccc(S(=O)(=O)O)c3cc(S(=O)(=O)O)cc(S(=O)(=O)O)c23)cc1NC(=O)c1cccc(NC(=O)Nc2cccc(C(=O)Nc3cc(C(=O)Nc4ccc(S(=O)(=O)O)c5cc(S(=O)(=O)O)cc(S(=O)(=O)O)c45)ccc3C)c2)c1 [Suramin, reference compound] | 66 ± 5.2 | 64 ± 1.8 | 66 ± 71 | 76 ± 11 | 7170 ± 870 | 380 ± 58 | – | – | –
